# Tested on: RA patients
# Test: [HDL] determination, Study 2 (RA patients, monotherapy)
# Type: in vivo, human
# Source text: Randomized, double-blind, placebo-controlled, multicenter, phase IIb dose finding study of Compound 1 (dosed as a [Compound 1:HCl:3H2O]) administered for 24 weeks as monotherapy to subjects with moderately to severely active rheumatoid arthritis who have an inadequate response to methotrexate alone
# Double-blind, placebo-controlled, monotherapy study in subjects with moderately to severely active RA who have an inadequate response to methotrexate (MTX) (oral or parenteral).
# 280 subjects randomized to one of 3 doses of Compound 1 (dosed as a [Compound 1:HCl:3H2O]) or to placebo, given once daily (q.d.).
# Twelve weeks of treatment with Compound 1 (dosed as a [Compound 1:HCl:3H2O]) at 50 mg, 100 mg, or 200 mg q.d.; or placebo. At Week 12, all subjects on placebo and the subjects on the 50 mg dose who have not achieved 20% improvement in swollen joint count (SJC66) and tender joint count (TJC68) will be assigned to 100 mg q.d. in a blinded fashion and will continue treatment until Week 24. Subjects in the other groups will maintain their randomized treatment until Week 24.
# This assay relies on a homogeneous enzymatic colorimetric test. In the presence of magnesium ions, dextran sulfate selectively forms water-soluble complexes with LDL, VLDL and chylomicrons which are resistant to PEG-modified enzymes.
# The cholesterol concentration of [HDL]-cholesterol is determined enzymatically by cholesterol esterase and cholesterol oxidase coupled with PEG to the amino groups (approx. 40%).
# In the presence of peroxidase, the hydrogen peroxide generated reacts with 4-amino-antipyrine and Sodium N-(2-hydroxy-3-sulfopropyl)-3,5-dimethoxyaniline (HSDA) to form a purple-blue dye. The color intensity of this dye is directly proportional to the cholesterol concentration and is measured photometrically.
# Human serum and plasma samples [HDL] determination was done on a Roche/Hitachi Cobas c 701/702 system which automatically calculate the analyte concentration of each sample. Samples containing precipitates are centrifuged before performing the assay.
# [1] = placebo switching to 100 mg q.d. at week 12 (N = 72), week 16
# [2] = placebo switching to 100 mg q.d. at week 12 (N = 72), week 20
# [3] = placebo switching to 100 mg q.d. at week 12 (N = 72), week 24
# [4] = placebo switching to 100 mg q.d. at week 12, week 16
# [5] = placebo switching to 100 mg q.d. at week 12, week 20
# [6] = placebo switching to 100 mg q.d. at week 12, week 24
smiles,measurement,setting,value
"O=C(Nc1nc2cccc(-c3ccc(CN4CCS(=O)(=O)CC4)cc3)n2n1)C1CC1 [Compound 1, cyclopropanecarboxylic acid {5-[4-(1,1-dioxo-thiomorpholin-4-ylmethyl)-phenyl]-[1,2,4]triazolo[1,5-a]pyridin-2yl}-amide]",[HDL] Mean CFB - 24 weeks results,"100 mg q.d. (N = 70), week 8",0.17 mmol/L
same,[HDL] Median CFB,"100 mg q.d. (N = 70), week 8",0.140 mmol/L
same,[HDL] Median CFB - 24 weeks results,"100 mg q.d. (N = 70), week 8",0.14 mmol/L
same,[HDL] Mean CFB,"100 mg q.d. (N = 70), week 12",0.190 mmol/L
same,[HDL] Mean CFB - 24 weeks results,"100 mg q.d. (N = 70), week 12",0.19 mmol/L
same,[HDL] Median CFB,"100 mg q.d. (N = 70), week 12",0.150 mmol/L
same,[HDL] Median CFB - 24 weeks results,"100 mg q.d. (N = 70), week 12",0.15 mmol/L
same,[HDL] Mean CFB - 24 weeks results,"100 mg q.d. (N = 70), week 16",0.23 mmol/L
same,[HDL] Median CFB - 24 weeks results,"100 mg q.d. (N = 70), week 16",0.20 mmol/L
same,[HDL] Mean CFB - 24 weeks results,"100 mg q.d. (N = 70), week 20",0.19 mmol/L
same,[HDL] Median CFB - 24 weeks results,"100 mg q.d. (N = 70), week 20",0.17 mmol/L
same,[HDL] Mean CFB - 24 weeks results,"100 mg q.d. (N = 70), week 24",0.18 mmol/L
same,[HDL] Median CFB - 24 weeks results,"100 mg q.d. (N = 70), week 24",0.18 mmol/L
same,[HDL] Mean percentage CFB - 12 weeks results,"100 mg q.d., week 1",7.49%
same,[HDL] Mean percentage CFB - 24 weeks results,"100 mg q.d., week 1",7.49%
same,[HDL] Median percentage CFB - 12 weeks results,"100 mg q.d., week 1",3.27%
same,[HDL] Mean percentage CFB - 12 weeks results,"100 mg q.d., week 2",11.30%
same,[HDL] Mean percentage CFB - 24 weeks results,"100 mg q.d., week 2",11.30%
same,[HDL] Median percentage CFB - 12 weeks results,"100 mg q.d., week 2",8.75%
same,[HDL] Mean percentage CFB - 12 weeks results,"100 mg q.d., week 4",15.65%
same,[HDL] Mean percentage CFB - 24 weeks results,"100 mg q.d., week 4",15.65%
same,[HDL] Median percentage CFB - 12 weeks results,"100 mg q.d., week 4",12.66%
same,[HDL] Mean percentage CFB - 12 weeks results,"100 mg q.d., week 8",13.77%
same,[HDL] Mean percentage CFB - 24 weeks results,"100 mg q.d., week 8",13.77%
same,[HDL] Median percentage CFB - 12 weeks results,"100 mg q.d., week 8",9.33%
same,[HDL] Mean percentage CFB - 12 weeks results,"100 mg q.d., week 12",15.23%
same,[HDL] Mean percentage CFB - 24 weeks results,"100 mg q.d., week 12",15.23%
same,[HDL] Median percentage CFB - 12 weeks results,"100 mg q.d., week 12",11.86%
same,[HDL] Median percentage CFB - 24 weeks results,"100 mg q.d., week 16",14.81%
same,[HDL] Mean percentage CFB - 24 weeks results,"100 mg q.d., week 20",14.51%
same,[HDL] Median percentage CFB - 24 weeks results,"100 mg q.d., week 20",13.29%
same,[HDL] Mean percentage CFB - 24 weeks results,"100 mg q.d., week 24",15.18%
same,[HDL] Median percentage CFB - 24 weeks results,"100 mg q.d., week 24",12.54%
same,[HDL] Mean CFB,"200 mg q.d. (N = 69), week 1",0.026 mmol/L
same,[HDL] Mean CFB - 24 weeks results,"200 mg q.d. (N = 69), week 1",0.03 mmol/L
same,[HDL] Median CFB,"200 mg q.d. (N = 69), week 1",0.030 mmol/L
same,[HDL] Median CFB - 24 weeks results,"200 mg q.d. (N = 69), week 1",0.03 mmol/L
same,[HDL] Mean CFB,"200 mg q.d. (N = 69), week 2",0.163 mmol/L
same,[HDL] Mean CFB - 24 weeks results,"200 mg q.d. (N = 69), week 2",0.16 mmol/L
same,[HDL] Median CFB,"200 mg q.d. (N = 69), week 2",0.150 mmol/L
same,[HDL] Median CFB - 24 weeks results,"200 mg q.d. (N = 69), week 2",0.15 mmol/L
same,[HDL] Mean CFB,"200 mg q.d. (N = 69), week 4",0.220 mmol/L
same,[HDL] Mean CFB - 24 weeks results,"200 mg q.d. (N = 69), week 4",0.22 mmol/L
same,[HDL] Median CFB,"200 mg q.d. (N = 69), week 4",0.210 mmol/L
same,[HDL] Median CFB - 24 weeks results,"200 mg q.d. (N = 69), week 4",0.21 mmol/L
same,[HDL] Mean CFB,"200 mg q.d. (N = 69), week 8",0.219 mmol/L
same,[HDL] Mean CFB - 24 weeks results,"200 mg q.d. (N = 69), week 8",0.22 mmol/L
same,[HDL] Median CFB,"200 mg q.d. (N = 69), week 8",0.200 mmol/L
same,[HDL] Median CFB - 24 weeks results,"200 mg q.d. (N = 69), week 8",0.20 mmol/L
same,[HDL] Mean CFB,"200 mg q.d. (N = 69), week 12",0.194 mmol/L
same,[HDL] Mean CFB - 24 weeks results,"200 mg q.d. (N = 69), week 12",0.19 mmol/L
same,[HDL] Median CFB,"200 mg q.d. (N = 69), week 12",0.150 mmol/L
same,[HDL] Median CFB - 24 weeks results,"200 mg q.d. (N = 69), week 12",0.15 mmol/L
same,[HDL] Mean CFB - 24 weeks results,"200 mg q.d. (N = 69), week 16",0.19 mmol/L
same,[HDL] Median CFB - 24 weeks results,"200 mg q.d. (N = 69), week 16",0.16 mmol/L
same,[HDL] Mean CFB - 24 weeks results,"200 mg q.d. (N = 69), week 20",0.21 mmol/L
same,[HDL] Median CFB - 24 weeks results,"200 mg q.d. (N = 69), week 20",0.16 mmol/L
same,[HDL] Mean CFB - 24 weeks results,"200 mg q.d. (N = 69), week 24",0.19 mmol/L
same,[HDL] Median CFB - 24 weeks results,"200 mg q.d. (N = 69), week 24",0.16 mmol/L
same,[HDL] Mean percentage CFB - 12 weeks results,"200 mg q.d., week 1",2.04%
same,[HDL] Mean percentage CFB - 24 weeks results,"200 mg q.d., week 1",2.04%
same,[HDL] Median percentage CFB - 12 weeks results,"200 mg q.d., week 1",2.50%
same,[HDL] Mean percentage CFB - 12 weeks results,"200 mg q.d., week 2",11.20%
same,[HDL] Mean percentage CFB - 24 weeks results,"200 mg q.d., week 2",11.20%
same,[HDL] Median percentage CFB - 12 weeks results,"200 mg q.d., week 2",9.92%
same,[HDL] Mean percentage CFB - 12 weeks results,"200 mg q.d., week 4",15.68%
same,[HDL] Mean percentage CFB - 24 weeks results,"200 mg q.d., week 4",15.68%
same,[HDL] Median percentage CFB - 12 weeks results,"200 mg q.d., week 4",14.18%
same,[HDL] Mean percentage CFB - 12 weeks results,"200 mg q.d., week 8",15.24%
same,[HDL] Mean percentage CFB - 24 weeks results,"200 mg q.d., week 8",15.24%
same,[HDL] Median percentage CFB - 12 weeks results,"200 mg q.d., week 8",16.35%
same,[HDL] Mean percentage CFB - 12 weeks results,"200 mg q.d., week 12",14.60%
same,[HDL] Mean percentage CFB - 24 weeks results,"200 mg q.d., week 12",14.60%
same,[HDL] Median percentage CFB - 12 weeks results,"200 mg q.d., week 12",12.00%
same,[HDL] Mean percentage CFB - 24 weeks results,"200 mg q.d., week 16",13.07%
same,[HDL] Mean percentage CFB - 24 weeks results,"200 mg q.d., week 20",15.18%
same,[HDL] Median percentage CFB - 24 weeks results,"200 mg q.d., week 20",11.54%
same,[HDL] Mean percentage CFB - 24 weeks results,"200 mg q.d., week 24",13.79%
same,[HDL] Median percentage CFB - 24 weeks results,"200 mg q.d., week 24",11.96%
same,[HDL] Mean CFB - 24 weeks results,[1],0.19 mmol/L
same,[HDL] Median CFB - 24 weeks results,[1],0.16 mmol/L
same,[HDL] Mean CFB - 24 weeks results,[2],0.19 mmol/L
same,[HDL] Median CFB - 24 weeks results,[2],0.18 mmol/L
same,[HDL] Mean CFB - 24 weeks results,[3],0.16 mmol/L
same,[HDL] Median CFB - 24 weeks results,[3],0.15 mmol/L
same,[HDL] Mean percentage CFB - 24 weeks results,[4],16.36%
same,[HDL] Median percentage CFB - 24 weeks results,[4],10.82%
same,[HDL] Mean percentage CFB - 24 weeks results,[5],16.02%
same,[HDL] Median percentage CFB - 24 weeks results,[5],13.11%
same,[HDL] Mean percentage CFB - 24 weeks results,[6],13.47%
same,[HDL] Median percentage CFB - 24 weeks results,[6],11.36%

# — patent US10376520B2, “Methods for the treatment of cardiovascular disorders” (Galapagos NV, priority 2015, dated 2019)
